Laboratory results published in patent publication US20070033061A1 (priority 2005, published 2007).
Converted amounts (≈) assume the structure as drawn.

How the values were obtained:
Assay type in all cases: cell-based
[1] = test system: membrane permeabilized E. coli; conditions: for enhancement of the activity of ciprofloxacin: at 25 μM
E. coli ΔrecB strains = test system: E. coli ΔrecB strains
[2] = test system: E. coli MG1655 loss of function strains; experiment: microbe, parasite or virus in culture
E. coli wild-type = test system: E. coli wild-type
[3] = test system: E. coli strain MG1655 and mutated strains; experiment: microbe, parasite or virus in culture
[4] = test system: P. aeruginosa strains RTC1014-RTC1019
[5] = test system: E. coli strains RTC0141-RTC0148

For NCCCCCCNc1ccnc2cc(Cl)ccc12 [Formula III], the ciprofloxacin sensitization [1] was “enhanced ciprofloxacin sensitivity”.

With Cn1c2ccccc2n2c3ncccc3c(=O)c(C#N)c12 [Formula IIb] the “enhancement of the activity of ciprofloxacin” value [1] was “enhanced the activity of ciprofloxacin”.

In the case of Cn1c2ccccc2n2c3cnccc3c(=O)c(C#N)c12 [Formula IIc], the “enhancement of the activity of ciprofloxacin” value [1] is reported as “enhanced the activity of ciprofloxacin”.

In the case of Nc1ccc2noc3c2c1C(=O)c1ccccc1-3 [Formula Ia], the “MIC shift in ciprofloxacin responsiveness” value [1] is reported as 10 ×.

In the case of CO[C@@]12[C@H](COC(N)=O)C3=C(C(=O)C(C)=C(N)C3=O)N1C[C@@H]1N[C@@H]12 [Mitomycin C], the “Mitomycin C MIC lower compared to recB+ strains” value (E. coli ΔrecB strains) is reported as “about 8 fold”.

In the case of O=C(O)c1cn(C2CC2)c2cc(N3CCNCC3)c(F)cc2c1=O [ciprofloxacin], the “ciprofloxacin MIC, gyrA S83Δ” value [2] is reported as 0.25 µg/mL, the MIC ([2]; Escherichia coli, MG1655, read-out: ciprofloxacin MIC, gyrA S83L) is reported as 0.45 µg/mL (≈ 1.36 µM) and the cells killed (E. coli wild-type) is reported as 99%. The “ciprofloxacin MIC, gyrA S83Δ” value [3] was 0.25 µg/mL and the MIC ([3]; Escherichia coli, MG1655, read-out: ciprofloxacin MIC) was less than 0.001 µg/mL.

B1: lambda gam: protein used by λ phage to inhibit E. coli RecB; overexpressed from an arabinose-inducible vector (protein, UniProt P03702 1-138, looked up)
Host-nuclease inhibitor …: MDINTETEIKQKHSLTPFPVFLISPAFRGRYFHSYFRSSAMNAYYIQDRLEAQSWARHYQQLAREEKEAELADDMEKGLPQHLFESLCIDHLQRHGASKKSITRAFDDDVEFQERMAEHIRYMVETIAHHQVDIDSEV
In the case of B1, the “decrease in the ciprofloxacin MIC on overexpression of lambda gam” value [4] is reported as 2-4 fold, the “effect of lambda gam overexpression on ciprofloxacin sensitivity” value [4] is reported as “no effect” and the “decrease in the ciprofloxacin IC50 on overexpression of lambda gam” value [5] is reported as 5-8 fold. For the same molecule, the “effect of lambda gam overexpression on ciprofloxacin sensitivity” value [5] was “no effect”.
